Measurements: PubChem BioAssay (NCI)
Several values for one entry are separate records, joined by “and”; a condition that tells them apart may be missing. Equal values may be shown once.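 Values below derive from 48-hour exposures of cells grown in 96-well plates, with endpoints linearly interpolated between the two concentrations bracketing the appropriate inhibition level. GI50: concentration for 50% inhibition of growth. TGI denotes the concentration required for complete inhibition of growth.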

How the values were obtained:
Experiment in all cases: NCI anticancer screen, dose series, 48 h
OVCAR-5 ovarian = tested on: OVCAR-5 ovarian
IGROV1 ovarian = tested on: IGROV1 ovarian
COLO 205 colon = tested on: COLO 205 colon
RXF 393 renal = tested on: RXF 393 renal
TK-10 renal = tested on: TK-10 renal
KM12 colon = tested on: KM12 colon
EKVX NSCLC = tested on: EKVX NSCLC
SK-MEL-28 melanoma = tested on: SK-MEL-28 melanoma
UO-31 renal = tested on: UO-31 renal
SK-MEL-2 melanoma = tested on: SK-MEL-2 melanoma

| SMILES | GI50 (OVCAR-5 ovarian) | TGI (OVCAR-5 ovarian) | GI50 (IGROV1 ovarian) | TGI (IGROV1 ovarian) | GI50 (COLO 205 colon) | TGI (COLO 205 colon) | GI50 (RXF 393 renal) | TGI (RXF 393 renal) | GI50 (TK-10 renal) | TGI (TK-10 renal) [µM] | GI50 (KM12 colon) | TGI (KM12 colon) | GI50 (EKVX NSCLC) | TGI (EKVX NSCLC) | GI50 (SK-MEL-28 melanoma) | TGI (SK-MEL-28 melanoma) | GI50 (UO-31 renal) | TGI (UO-31 renal) | GI50 (SK-MEL-2 melanoma) [nM] | TGI (SK-MEL-2 melanoma) |
| --- | --- | --- | --- | --- | --- | --- | --- | --- | --- | --- | --- | --- | --- | --- | --- | --- | --- | --- | --- | --- |
| COc1cc(Nc2ncc(F)c(Nc3ccc4c(n3)N(COP(=O)(O)O)C(=O)C(C)(C)O4)n2)cc(OC)c1OC | 1700 nM and 1380 nM | 9.62 µM and > 10 µM | 457 nM and 342 nM | 2220 nM and 2110 nM | 2030 nM and 1310 nM | 5.37 µM and 3.59 µM | 100 nM and 256 nM | 621 nM and 936 nM | 774 nM and 768 nM | 3.06 | 498 nM and 409 nM | 15.4 µM and > 10 µM | 2190 nM and 1930 nM | 13.7 µM and > 10 µM | 3.69 µM and 5.05 µM | 21 µM and > 10 µM | 685 nM and 348 nM | 5.72 µM and 1.65 µM | 5810 | 53.3 µM and > 10 µM |
| Cc1ncc(C(=O)Nc2ccc(CN3CCN(C)CC3)c(C(F)(F)F)c2)cc1C#Cc1cnc(N)cc1C#N | 1660 nM | 4 µM | 103 nM | 2060 nM | 53.8 nM | 2.32 µM | 227 nM | 1470 nM | 1700 nM | 3.83 | 7.58 nM | 1.98 µM | 1120 nM | 3.38 µM | 0.0584 µM | 1.69 µM | 307 nM | 1.33 µM | 232 | 1.03 µM |
| CCN(CC)c1ccc(C(=O)c2ccc(N(CC)CC)cc2)cc1 | 4100 nM | > 100 µM | 602 nM | > 100000 nM | 515 nM | 3.44 µM | 444 nM | 1630 nM | 1330 nM | 68.9 | 349 nM | 8.89 µM | 1190 nM | > 70.3 µM | 23.1 µM | > 100 µM | 680 nM | 64.2 µM | 493 | 14.9 µM |
| Cc1cnc(C(=O)NNc2nc3sc4c(c3c(=O)n2C)C(C)CCC4)cn1 (stereo not given) | 491 nM | 7.4 µM | 292 nM | 2800 nM | 296 nM | 1.33 µM | 926 nM | 3600 nM | 608 nM | 11.9 | 362 nM | 2.16 µM | 292 nM | 9.13 µM | 0.537 µM | 4.6 µM | 322 nM | 1.86 µM | 1020 | 8.88 µM |
| Cn1cc(-c2ccc(-c3ccc(C4=NC5(CC5)C(=O)N4C[C@@H]4CCN(C(=O)C5CC5)C4)cc3)cc2)cn1 | 38600 nM | > 100 µM | 28700 nM | > 100000 nM | 15600 nM | 93.5 µM | 15900 nM | 33300 nM | 24000 nM | 81.2 | 5390 nM | 32.1 µM | 12900 nM | 55.8 µM | 20.3 µM | 79 µM | 1470 nM | > 100 µM | 24800 | > 100 µM |
| COC(=O)Nc1nc2ccc(Br)cc2[nH]1 |  | > 100 µM |  | > 100000 nM |  | > 100 µM |  | 67200 nM |  | > 100 |  | > 100 µM |  | > 100 µM |  | > 100 µM |  | > 100 µM |  | 62.6 µM |
